SMILES strings stand for the structures.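 Exposure lasted 48 hours, with cells grown in 96-well plates and compounds tested at five concentrations. GI50 marks 50% less growth. TGI denotes the concentration required for complete inhibition of growth.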

The test system of the first assay is MDA-MB-231 breast. Kind of assay: growth of human tumour cells (NCI), 48 h.
For `O=C(OCC1OC2OC(c3ccccc3)(n3ccc4c([N+](=O)[O-])ccnc43)OC2C1OC(=O)c1ccccc1)c1ccccc1` (stereo unspecified), the TGI was greater than 100 µM.
For the compound `Cc1ccc(/C(O)=C/C(=O)C(=O)/C=C(\O)c2ccc(C)cc2C)c(C)c1`, the TGI was determined as 4.83 µM.
`O=C(NCCCCCCNCc1cccc2ccccc12)Nc1cccc2ccccc12` had a TGI greater than 100 µM.
As to `Cc1ccc([C@H]2CC(=O)C[C@H](c3ccc(C)cc3)C23C(=O)c2ccccc2C3=O)cc1`, the TGI is greater than 100 µM.
`O=c1c2ncn(COCCCl)c2n(-c2ccccc2)c(=S)n1-c1ccccc1` gave a TGI greater than 100 µM.
`O=C(O)c1ccc(S(=O)(=O)c2ccccc2[N+](=O)[O-])cc1`: the TGI is greater than 10 µM.
As for `COc1ccc(/C=N/N=C(\N)NO)c(O)c1`, the TGI was greater than 10 µM.
The same measure, in the same setting: then `OCC1OC(n2cnc3c(Cl)nc(Nc4ccccc4)nc32)CC1O` (stereo unspecified), with greater than 100 µM; and `CC1(CF)SCc2nc3ccccc3n21` (stereo unspecified), with greater than 100 µM.
With `C[C@]12CCc3nc(Nc4ccccc4)sc3C1=CC[C@@H]1[C@@H]2CC[C@]2(C)/C(=N/NC(N)=S)CC[C@@H]12`, the GI50 is 4.43 µM and the TGI is greater than 100 µM.
Compound `O=C1NC(N/N=C/C(O)C(O)C(O)CO)=N/C1=C\c1ccco1` (stereo unspecified) returned a TGI greater than 100 µM.
`Cc1ccn2c(=O)cc(-c3ccccc3)nc2c1` gave a TGI greater than 100 µM.
Compound `CCn1nc2c3c(ncn3C(C)(C)O2)c1=O` had a TGI greater than 100 µM.
Still for that read-out and setting: then `CCCCCC(=O)NC(=S)Nc1nn[nH]n1`, with greater than 100 µM.
Consider `CCc1ccc2oc(-c3cc(O)c(-c4nc5cc(CC)ccc5o4)cc3O)nc2c1`, for which the TGI was greater than 100 µM.
In turn, `Cc1cn(C2CC(n3cc(Cn4cc(Br)c(=O)[nH]c4=O)nn3)C(CO)O2)c(=O)[nH]c1=O` (stereo unspecified) yielded a TGI greater than 100 µM.

A further assay deals with SF-539 CNS. Kind of assay: growth of human tumour cells (NCI), 48 h.
Turning to `CCC1(C(=O)OC(C)(C)C)OC12C(C)CCCC2C` (stereo unspecified), the TGI was greater than 100 µM.
With `Cc1ccc(-c2cc(N)n(-c3nc4c(c(=O)n(C)c(=O)n4C)n3C)n2)cc1`, the TGI was greater than 100 µM.
On the same count and under the same terms, then `O=C(Cc1ccccc1)NN1C(=O)/C(=C\c2cccc(O)c2)SC1=Nc1ccccc1`, with greater than 100 µM; and `CN(C)c1ccc(C2SCC(=O)N2NS(=O)(=O)c2cccc(C(=O)O)c2)cc1` (stereo unspecified), with greater than 100 µM.
Still for that read-out and setting: the figure for `CC1CCOc2ccc(cc2)C=Nc2ccc(cc2)CCc2ccc(cc2)N=Cc2ccc(cc2)OCC1` (stereo unspecified) is greater than 100 µM; for `O=C1c2ccccc2-c2nc(-c3cccc([N+](=O)[O-])c3)nnc21` it is greater than 100 µM; for `CC(=O)N1N=C(c2ccc3ccccc3c2O)CC1C(=O)c1ccco1` (stereo unspecified) it is 83.8 µM.
With `N#Cc1nc(-c2cccs2)oc1N`, the TGI is greater than 100 µM.
On to `NC(=O)NNC(=O)c1nc[nH]c1[N+](=O)[O-]`, for which the TGI was greater than 100 µM.
On the same count and under the same terms, then `O=c1c2c([N+](=O)[O-])cccc2nc2[nH]c3ccccc3n12`, with 25.3 µM.
Regarding `N#C/C(=C\n1ccc(=O)[nH]c1=S)C(N)=O`, the TGI is greater than 100 µM.
Compound `Cc1ccc(/C(O)=C/C(=O)C(=O)/C=C(\O)c2ccc(C)cc2C)c(C)c1` came in with a TGI of 3.56 µM.
With `O=C(NCCCCCCNCc1cccc2ccccc12)Nc1cccc2ccccc12`, the TGI is greater than 100 µM.
Turning to `Cc1ccc([C@H]2CC(=O)C[C@H](c3ccc(C)cc3)C23C(=O)c2ccccc2C3=O)cc1`, the TGI was greater than 100 µM.
`O=c1c2ncn(COCCCl)c2n(-c2ccccc2)c(=S)n1-c1ccccc1` gave a TGI greater than 100 µM.
Same read-out and setting: then `O=C(O)c1ccc(S(=O)(=O)c2ccccc2[N+](=O)[O-])cc1`, with greater than 10 µM.
On the same count and under the same terms, the figure for `COc1ccc(/C=N/N=C(\N)NO)c(O)c1` is greater than 10 µM; for `OCC1OC(n2cnc3c(Cl)nc(Nc4ccccc4)nc32)CC1O` (stereo unspecified) it is greater than 100 µM.
Regarding `CC1(CF)SCc2nc3ccccc3n21` (stereo unspecified), the TGI was greater than 100 µM.
Still for that read-out and setting: then `O=C1NC(N/N=C/C(O)C(O)C(O)CO)=N/C1=C\c1ccco1` (stereo unspecified), with greater than 100 µM; and `Cc1ccn2c(=O)cc(-c3ccccc3)nc2c1`, with greater than 100 µM; and `CCCCCC(=O)NC(=S)Nc1nn[nH]n1`, with greater than 100 µM.
Still for that read-out and setting: the figure for `CCc1ccc2oc(-c3cc(O)c(-c4nc5cc(CC)ccc5o4)cc3O)nc2c1` is greater than 100 µM; for `Cc1cn(C2CC(n3cc(Cn4cc(Br)c(=O)[nH]c4=O)nn3)C(CO)O2)c(=O)[nH]c1=O` (stereo unspecified) it is greater than 100 µM.

The next assay has as its system UACC-62 melanoma. Kind of assay: growth of human tumour cells (NCI), 48 h.
On to `CCC1(C(=O)OC(C)(C)C)OC12C(C)CCCC2C` (stereo unspecified), for which the TGI was greater than 100 µM.
Still for that read-out and setting: then `Cc1ccc(-c2cc(N)n(-c3nc4c(c(=O)n(C)c(=O)n4C)n3C)n2)cc1`, with greater than 100 µM; and `O=C(Cc1ccccc1)NN1C(=O)/C(=C\c2cccc(O)c2)SC1=Nc1ccccc1`, with greater than 100 µM.
On the same count and under the same terms, then `CN(C)c1ccc(C2SCC(=O)N2NS(=O)(=O)c2cccc(C(=O)O)c2)cc1` (stereo unspecified), with greater than 100 µM.
Same read-out and setting: the figure for `CC1CCOc2ccc(cc2)C=Nc2ccc(cc2)CCc2ccc(cc2)N=Cc2ccc(cc2)OCC1` (stereo unspecified) is greater than 100 µM; for `O=C1c2ccccc2-c2nc(-c3cccc([N+](=O)[O-])c3)nnc21` it is 32 µM.
`CC(=O)N1N=C(c2ccc3ccccc3c2O)CC1C(=O)c1ccco1` (stereo unspecified) gave a TGI of 62.6 µM.
On the same count and under the same terms, the figure for `N#Cc1nc(-c2cccs2)oc1N` is greater than 100 µM.
The same measure, in the same setting: the figure for `NC(=O)NNC(=O)c1nc[nH]c1[N+](=O)[O-]` is greater than 100 µM.
Same read-out and setting: then `O=c1c2c([N+](=O)[O-])cccc2nc2[nH]c3ccccc3n12`, with greater than 75 µM.
Regarding `N#C/C(=C\n1ccc(=O)[nH]c1=S)C(N)=O`, the TGI is greater than 100 µM.
Same read-out and setting: the figure for `O=C(OCC1OC2OC(c3ccccc3)(n3ccc4c([N+](=O)[O-])ccnc43)OC2C1OC(=O)c1ccccc1)c1ccccc1` (stereo unspecified) is greater than 100 µM.
Still for that read-out and setting: the figure for `Cc1ccc(/C(O)=C/C(=O)C(=O)/C=C(\O)c2ccc(C)cc2C)c(C)c1` is 3.38 µM; for `O=C(NCCCCCCNCc1cccc2ccccc12)Nc1cccc2ccccc12` it is greater than 100 µM; for `Cc1ccc([C@H]2CC(=O)C[C@H](c3ccc(C)cc3)C23C(=O)c2ccccc2C3=O)cc1` it is greater than 100 µM.
Same read-out and setting: the figure for `O=c1c2ncn(COCCCl)c2n(-c2ccccc2)c(=S)n1-c1ccccc1` is greater than 100 µM.
Compound `O=C(O)c1ccc(S(=O)(=O)c2ccccc2[N+](=O)[O-])cc1` yielded a TGI greater than 10 µM.
The compound `COc1ccc(/C=N/N=C(\N)NO)c(O)c1` displayed a TGI greater than 10 µM.
Same read-out and setting: then `OCC1OC(n2cnc3c(Cl)nc(Nc4ccccc4)nc32)CC1O` (stereo unspecified), with greater than 100 µM.
Still for that read-out and setting: then `CC1(CF)SCc2nc3ccccc3n21` (stereo unspecified), with greater than 100 µM.
For `C[C@]12CCc3nc(Nc4ccccc4)sc3C1=CC[C@@H]1[C@@H]2CC[C@]2(C)/C(=N/NC(N)=S)CC[C@@H]12`, the GI50 is 5.85 µM and the TGI is greater than 100 µM.
In the case of `O=C1NC(N/N=C/C(O)C(O)C(O)CO)=N/C1=C\c1ccco1` (stereo unspecified), the TGI was greater than 100 µM.
The same measure, in the same setting: then `Cc1ccn2c(=O)cc(-c3ccccc3)nc2c1`, with greater than 100 µM.
Consider `CCn1nc2c3c(ncn3C(C)(C)O2)c1=O`, for which the TGI was greater than 100 µM.

Source of the values: PubChem BioAssay (NCI).
